Measurements taken from ChEMBL document CHEMBL1201862, “PubChem BioAssay data set” (2004).
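Step 1: Grow cells in 96-well plates. Step 2: Expose to compound for 48 hours at 5 concentrations. Step 3: Interpolate endpoints linearly; if unreached, use highest concentration. Here, GI50 denotes the concentration required for 50% inhibition of growth.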 The source made the active and inactive calls. Cut-off read from the data, not from the text of the source: active = GI50 up to about 1.1 µM and inactive = higher. Where a SMILES comes first, the peptide text is derived from it. [ ]: non-standard residue; d: D form. The star is where a group is joined. Cbz = O=C(OCc1ccccc1)*; Aib = CC(C)(N)C(=O)O; OBn = c1ccc(CO*)cc1

Tests used:
Assay in all cases: growth of human tumour cells (NCI), 48 h
RPMI-8226 = tested on: RPMI-8226
K562 = tested on: K562
HCT-116 = tested on: HCT-116
T47D = tested on: T47D
MDA-N = tested on: MDA-N
SK-MEL-28 = tested on: SK-MEL-28
MDA-MB-435 = tested on: MDA-MB-435
HT-29 = tested on: HT-29
HCC 2998 = tested on: HCC 2998
MCF7 = tested on: MCF7
A549 = tested on: A549
MOLT-4 = tested on: MOLT-4
CCRF-CEM = tested on: CCRF-CEM
SK-OV-3 = tested on: SK-OV-3
NCI-H226 = tested on: NCI-H226
MDA-MB-231 = tested on: MDA-MB-231
SN12C = tested on: SN12C
SK-MEL-5 = tested on: SK-MEL-5
CAKI-1 = tested on: CAKI-1
U-251 = tested on: U-251

Measured: GI50

CCc1c[n+]2c(cc1C1=CN3c4ccccc4[C@]45CCN6C/C(=C/CO)[C@H](C[C@H]64)[C@@H]([C@@H]1O)[C@H]35)-c1[nH]c3ccccc3c1CC2
inactive: RPMI-8226 > 50 µM | K562 > 50 µM | HCT-116 > 50 µM | T47D > 50 µM | MDA-N > 50 µM | SK-MEL-28 > 50 µM | MDA-MB-435 > 50 µM | HT-29 > 50 µM | HCC 2998 > 50 µM | MCF7 > 50 µM | A549 > 50 µM | MOLT-4 > 50 µM | CCRF-CEM > 50 µM | SK-OV-3 > 50 µM | NCI-H226 > 50 µM | MDA-MB-231 > 50 µM | SN12C > 50 µM | SK-MEL-5 > 50 µM | CAKI-1 > 50 µM | U-251 > 50 µM

CC(NC(=O)C(C)(C)NC(=O)C(CC(=O)OCc1ccccc1)NC(=O)OCc1ccccc1)C(N)=O (stereo not given) (Cbz-Asp(OBn)-[Aib]-Ala-NH2; configuration not given here)
inactive: RPMI-8226 > 100 µM | K562 > 100 µM | HCT-116 > 100 µM | T47D > 100 µM | MDA-N > 100 µM | SK-MEL-28 > 100 µM | MDA-MB-435 > 100 µM | HT-29 > 100 µM | HCC 2998 > 100 µM | MCF7 > 100 µM | A549 > 100 µM | MOLT-4 > 100 µM | CCRF-CEM > 100 µM | SK-OV-3 > 100 µM | NCI-H226 > 100 µM | MDA-MB-231 > 100 µM | SN12C > 100 µM | SK-MEL-5 > 100 µM | CAKI-1 > 100 µM | U-251 > 100 µM

CC(=O)O[C@H]1C(=O)[C@@]2(C)[C@H]([C@H](OC(=O)c3ccc([N+](=O)[O-])cc3)[C@]3(O)C[C@H](OC(=O)[C@H](O)[C@@H](NC(=O)c4ccccc4)c4ccccc4)C(C)=C1C3(C)C)[C@]1(OC(C)=O)CO[C@@H]1C[C@@H]2O
inactive: RPMI-8226 > 25 µM | K562 > 25 µM | HCT-116 > 25 µM | T47D > 25 µM | MDA-N 16.8 µM | SK-MEL-28 > 25 µM | MDA-MB-435 > 25 µM | HT-29 > 25 µM | HCC 2998 > 25 µM | MCF7 > 25 µM | A549 > 25 µM | MOLT-4 > 25 µM | CCRF-CEM > 25 µM | SK-OV-3 > 25 µM | NCI-H226 > 25 µM | MDA-MB-231 > 25 µM | SN12C > 25 µM | SK-MEL-5 > 25 µM | CAKI-1 > 25 µM | U-251 > 25 µM

O=C(O)CCc1ccc(-c2ccccc2)[nH]1
inactive: RPMI-8226 > 100 µM | K562 > 100 µM | HCT-116 > 100 µM | T47D > 100 µM | MDA-N > 100 µM | SK-MEL-28 > 100 µM | MDA-MB-435 > 100 µM | HT-29 > 100 µM | HCC 2998 > 100 µM | MCF7 > 100 µM | A549 > 100 µM | MOLT-4 > 100 µM | CCRF-CEM 70.6 µM | SK-OV-3 > 100 µM | NCI-H226 > 100 µM | MDA-MB-231 > 100 µM | SN12C > 100 µM | SK-MEL-5 > 100 µM | CAKI-1 > 100 µM | U-251 > 100 µM

COP(C)(=O)C(Cc1c[nH]c2ccccc12)NC(=O)OCc1ccccc1 (stereo not given)
inactive: RPMI-8226 > 100 µM | K562 > 100 µM | HCT-116 > 100 µM | T47D > 100 µM | MDA-N > 100 µM | SK-MEL-28 > 100 µM | MDA-MB-435 > 100 µM | HT-29 > 100 µM | HCC 2998 > 100 µM | MCF7 > 100 µM | A549 > 100 µM | MOLT-4 > 100 µM | CCRF-CEM > 100 µM | SK-OV-3 > 100 µM | NCI-H226 > 100 µM | MDA-MB-231 > 100 µM | SN12C > 100 µM | SK-MEL-5 > 100 µM | CAKI-1 > 100 µM | U-251 > 100 µM

N=C(N)NS(=O)(=O)c1ccc(NC(=O)c2ccc3nc4ccccc4c(N)c3c2)cc1
inactive: RPMI-8226 > 100 µM | K562 > 100 µM | HCT-116 > 100 µM | T47D > 100 µM | MDA-N > 100 µM | SK-MEL-28 > 100 µM | MDA-MB-435 > 100 µM | HT-29 > 100 µM | HCC 2998 > 100 µM | MCF7 > 100 µM | A549 > 100 µM | MOLT-4 > 100 µM | CCRF-CEM > 100 µM | SK-OV-3 > 100 µM | NCI-H226 > 100 µM | MDA-MB-231 > 100 µM | SN12C > 100 µM | SK-MEL-5 > 100 µM | CAKI-1 > 100 µM | U-251 > 100 µM
